{
  "source": "patent US20040096455A1",
  "about": "“Transdermal vaccine delivery device having coated microprotrusions” (priority 2002, published 2004)",
  "key": {"[1]": {"system": "monovalent \"split-varion\" influenza vaccine (A/Panama/2007/99, H3N2)", "type": "physicochemical, influenza virus"}, "ovalbumin": {"target": "T1, ovalbumin (Gallus gallus, UniProt P01012)", "T1 sequence (P01012 1-386)": "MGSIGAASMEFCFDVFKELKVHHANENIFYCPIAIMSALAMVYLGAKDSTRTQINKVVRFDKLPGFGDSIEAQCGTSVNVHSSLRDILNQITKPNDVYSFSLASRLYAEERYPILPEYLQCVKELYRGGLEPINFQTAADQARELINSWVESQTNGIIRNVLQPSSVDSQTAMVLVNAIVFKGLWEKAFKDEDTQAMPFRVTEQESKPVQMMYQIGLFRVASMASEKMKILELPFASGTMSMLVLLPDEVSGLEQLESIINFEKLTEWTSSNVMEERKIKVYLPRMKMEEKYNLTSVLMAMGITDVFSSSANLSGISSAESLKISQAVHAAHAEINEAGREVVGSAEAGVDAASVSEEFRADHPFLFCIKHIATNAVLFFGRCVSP", "assay": "Solubilization of 0.5 wt % ovalbumin solution by surfactants", "type": "physicochemical", "source_text": "Other surfactants and concentrations were test against a solution 0.5 wt % ovalbumin."}, "[2]": {"details": "0.5 wt % ovalbumin, Surfactant Concentration 0.0085 M"}, "[3]": {"details": "0.5 wt % ovalbumin, Surfactant Concentration 0.017 M"}, "[4]": {"details": "0.5 wt % ovalbumin, Surfactant Concentration 0.035 M"}, "[5]": {"details": "0.5 wt % ovalbumin, Surfactant Concentration 0.052 M"}, "[6]": {"details": "0.5 wt % ovalbumin, Surfactant Concentration 0.069 M"}},
  "note": "Like-named read-outs stand apart in the source and are kept apart here.",
  "data": [
    {"smiles": "CCCCCCCCCCCCCC[N+](C)(C)CCCS(=O)(=O)[O-]", "note": "[Zwittergent 3-14]", "values": [
      {"measurement": "Turbidity @ 340 nanometers (200 μg/ml)", "setting": "[1]", "value": 0.070}
    ]},
    {"smiles": "CCCCCCCCCCCC[N+](C)(C)C.[Br-]", "note": "[Dodecyltrimethylammonium Br]", "values": [
      {"measurement": "complete solubilization of ovalbumin solution", "setting": "ovalbumin; [2]", "value": "−"},
      {"measurement": "complete solubilization of ovalbumin solution", "setting": "ovalbumin; [3]", "value": "−"},
      {"measurement": "complete solubilization of ovalbumin solution", "setting": "ovalbumin; [4]", "value": "−"},
      {"measurement": "complete solubilization of ovalbumin solution", "setting": "ovalbumin; [5]", "value": "−"},
      {"measurement": "complete solubilization of ovalbumin solution", "setting": "ovalbumin; [6]", "value": "−"}
    ]},
    {"smiles": "CCCCCCCCCCCC(=O)[O-].[Na+]", "note": "[Sodium laurate]", "values": [
      {"measurement": "complete solubilization of ovalbumin solution", "setting": "ovalbumin; [2]", "value": "−"},
      {"measurement": "complete solubilization of ovalbumin solution", "setting": "ovalbumin; [3]", "value": "−"},
      {"measurement": "complete solubilization of ovalbumin solution", "setting": "ovalbumin; [4]", "value": "+"},
      {"measurement": "complete solubilization of ovalbumin solution", "setting": "ovalbumin; [5]", "value": "+"},
      {"measurement": "complete solubilization of ovalbumin solution", "setting": "ovalbumin; [6]", "value": "+"}
    ]},
    {"smiles": "CCCCCCCCCCCCCCOS(=O)(=O)[O-].[Na+]", "note": "[Sodium tetradecylsulfate]", "values": [
      {"measurement": "complete solubilization of ovalbumin solution", "setting": "ovalbumin", "value": "−"}
    ]},
    {"smiles": "CCCCCCCCCC[N+](C)(C)CCCS(=O)(=O)[O-]", "note": "[Zwittergent 3-10]", "values": [
      {"measurement": "Turbidity @ 340 nanometers (200 μg/ml)", "setting": "[1]", "value": 0.120}
    ]},
    {"smiles": "CCCCCCCCCCCC[N+](C)(C)CCCS(=O)(=O)[O-]", "note": "[Zwittergent 3-12]", "values": [
      {"measurement": "Turbidity @ 340 nanometers (200 μg/ml)", "setting": "[1]", "value": 0.087}
    ]},
    {"smiles": "CCCCCCCCCCCCCCCCCCOS(=O)(=O)[O-].[Na+]", "note": "[Sodium octadecylsulfate]", "values": [
      {"measurement": "complete solubilization of ovalbumin solution", "setting": "ovalbumin", "value": "−"}
    ]},
    {"smiles": "CCCCCCCCOS(=O)(=O)[O-].[Na+]", "note": "[Sodium octylsulfate]", "values": [
      {"measurement": "complete solubilization of ovalbumin solution", "setting": "ovalbumin", "value": "−"}
    ]}
  ]
}
